# Experiments:
# [1] = test system: MPTP-lesioned macaques; test: Motor activity (total activity, high activity time and counts) in MPTP-lesioned macaques treated with URB597 and L-DOPA; assay type: in vivo, cynomolgus monkeys (Macaca fascicularis)
# [2] = test system: MPTP-lesioned marmosets; test: Rating of parkinsonian disability, dyskinesia and psychosis in MPTP-lesioned marmosets; assay type: in vivo, common marmosets (Callithrix jacchus); conditions: L-DOPA 20 mg/kg s.c. alone, summed 2-4 h
# Experimental: (§1) Six common marmosets (Callithrix jacchus; female; weight, 350-500 g (Harlan, Madison, Wis., USA)) were kept under conditions of controlled temperature (25±2° C.) and a 12-hour light/dark cycle (lights on 6:30 a.m.). Animals were group housed and had access to food, fresh-fruit supplements and water ad libitum and their home cage environment was enriched with primate toys, perches and auditory stimuli. Prior to start of studies, animals were acclimatized to handling, blood collection and administration of treatments (oral syringe feeding and subcutaneous injection) as well as transfer to observation cages for assessment of behavior. A parkinsonian syndrome was induced by once-daily subcutaneous administration of MPTP hydrochloride (Sigma, Canada; 2 mg/kg base concentration in 0.9% saline) for 5 consecutive days. Following this, animals were allowed to recover for 12 weeks to allow parkinsonian symptoms to develop and stabilize. […] Treatment-related complications including dyskinesia and psychosis-like behaviors were evoked by twice-daily treatment with L-DOPA p.o. (as Prolopa®, Roche Canada, Ontario, equivalent to 15 mg/kg L-DOPA and 3.5 mg/kg benserazide) for a minimum of 30 days. […] Disord. 21:839-846; Visanji et al. (2008) Mov. Disord. 23:1922-1925; Visanji et al (2009) Neurobiol Dis. 35: 184-192]. After this time, the animals were used in several studies to evaluate potential anti-parkinsonian and anti-dyskinetic agents. A minimum period of two weeks was allowed between completing any prior study and commencing this study, a period in excess of ten half-lives since administration of any previously employed experimental drug. Throughout the course of the study, on days not requiring plasma sampling or behavioral observations, animals were treated once daily with oral L-DOPA therapy, given at 10:00 a.m. to maintain stable levels of complications. Marmosets treated with MPTP as described in this example are referred to as MPTP-lesioned marmosets.
# (§2) To assess the effect of treatment on plasma FAAH substrate level, total activity, high activity time and count, data were analyzed using a parametric repeated-measures (RM) 1-way analysis of variance (ANOVA) followed by a Student Newman-Keuls Multiple Comparison post hoc test. To assess the effect of treatment on plasma L-DOPA level a paired, two-tailed t-test was used. All FAAH (AEA, OEA, PEA) subbstrate and L-DOPA plasma level data and activity data are presented as the group mean and SEM For measures of parkinsonian disability, dyskinesia and psychosis, data were analyzed via Friedman's test with Dunn's Multiple Comparison post hoc test. […] In all cases, p<0.05 was taken to represent a significant difference.
# (§3) MPTP hydrochloride (Sigma, Canada) was dissolved in 0.9% NaCl sterile solution to a concentration of 0.2 mg/ml (freebase) and administered at 1 ml/kg. Maintenance L-DOPA, administered as Prolopa® capsules (Roche, Mississauga, ON, Canada) containing 50 mg L-DOPA and 12.5 mg benserazide (freebase) was dissolved in Gatorade sports beverage (The Gatorade Company, Chicago, Ill.) prior to oral administration by syringe at a volume of 10 ml/kg. On days of behavioral assessment, L-DOPA (20 mg/kg, freebase) was prepared from the methyl ester form (Sigma, Canada) in combination with benserazide hydrochloride (5 mg/kg, freebase, Sigma, Canada) dissolved in 0.9% sterile saline containing 0.1% ascorbate (Sigma, Canada) and 0.05% absolute ethanol. URB597 (Cayman Chemical, Ann Arbor, Mich.) was formulated in a vehicle containing 50% corn oil (Professional Compounding Centers of America (PCCA), Houston, Tex.) and 50% nutritional drink Ensure™ (Abbott Nutrition, Chicago, Ill.) to make the suspension palatable for marmoset oral dosing. Requisite amounts of URB597 were weighed into sterile 50 ml polypropylene tubes (for the 3, 10, 30 and 60 mg/kg doses, 12, 40, 120 and 240 mg were weighed respectively). Then, 10 ml Corn oil was added and mixed until homogenous.
# [3] = test system: MPTP-lesioned marmosets; test: Motor activity (passive infra-red sensors: total activity, high activity counts and time) in MPTP-lesioned marmosets; assay type: in vivo, common marmosets (Callithrix jacchus)
# Experimental: as §1, §2, §3
# [4] = L-DOPA 20 mg/kg s.c. alone, 2-4 h, mean±SEM, n=6
# [5] = L-DOPA 20 mg/kg s.c. alone, 2-4 h, p<0.001
# [6] = L-DOPA 20 mg/kg s.c. alone, 2-4 h, p<0.05
structure (smiles),measurement,setting,value
"N[C@@H](Cc1ccc(O)c(O)c1)C(=O)O [L-DOPA, 3,4-dihydroxyphenylalanine]","total activity counts, high activity time and counts compared to normal, unlesioned macaques","[1]; L-DOPA p.o. (30 to 45 mg/kg), 1 to 3.5 hrs after administration",higher
same,"total activity counts, high activity time and high activity counts compared to normal macaques","[1]; L-DOPA p.o. alone, between 2 and 3 h after L-DOPA",significantly higher
same,psychosis score (median),"[2]; IQR 0-0 as printed, n=6",0
same,dyskinesia score (median),"[2]; IQR 10-29, n=6",20
same,parkinsonian disability score (median),"[2]; maximum 432, IQR 57-111, n=6",80
same,total activity counts,"[3]; L-DOPA 20 mg/kg s.c. alone (vehicle p.o.), peak dose period 2-4 h, mean±SEM, n=6",2782±682 counts
same,high activity counts,[3]; [4],2170±778 counts
same,high activity time,[3]; [4],53.3 ± 15.2 min
same,"increase in high activity time compared to normal, non-MPTP-lesioned animals",[3]; [5],167%
same,"increase in total activity compared to vehicle (s.c.)-treated, MPTP-lesioned animals",[3]; [5],379%
same,"increase in high activity counts compared to normal, non-MPTP-lesioned animals",[3]; [6],120%
same,"increase in total activity compared to non-treated, non-MPTP-lesioned (normal) animals",[3]; [6],77%
same,period following drug administration in which total activity was significantly increased compared to vehicle (s.c.)-treated animals,"[3]; L-DOPA 20 mg/kg s.c. alone, 6 h time course, 30 min intervals",3.5 h

# From US20130150346A1, “Use of FAAH Inhibitors for Treating Parkinson's Disease and Restless Legs Syndrome” (Ironwood Pharmaceutical, Inc., priority 2010, published 2013)
